Assays:
[1] = molecular target: T1, calcitonin receptors (CTR) (Homo sapiens, UniProt P30988); experiment: cAMP determination (HTRF, cAMP Dynamic 2 Kit) in cAMP Hunter HEK293-CT-R Gs cell line; type: cell-based; details: for Relative Activity%: relative to Salmon Calcitonin = 100.0, HEK293 CT-R cAMP
T1 construct: expressed in transfected cells; host or cells: cAMP Hunter HEK293-CT-R Gs cell line (HEK293, stably transfected)
T1 sequence (P30988 25-474): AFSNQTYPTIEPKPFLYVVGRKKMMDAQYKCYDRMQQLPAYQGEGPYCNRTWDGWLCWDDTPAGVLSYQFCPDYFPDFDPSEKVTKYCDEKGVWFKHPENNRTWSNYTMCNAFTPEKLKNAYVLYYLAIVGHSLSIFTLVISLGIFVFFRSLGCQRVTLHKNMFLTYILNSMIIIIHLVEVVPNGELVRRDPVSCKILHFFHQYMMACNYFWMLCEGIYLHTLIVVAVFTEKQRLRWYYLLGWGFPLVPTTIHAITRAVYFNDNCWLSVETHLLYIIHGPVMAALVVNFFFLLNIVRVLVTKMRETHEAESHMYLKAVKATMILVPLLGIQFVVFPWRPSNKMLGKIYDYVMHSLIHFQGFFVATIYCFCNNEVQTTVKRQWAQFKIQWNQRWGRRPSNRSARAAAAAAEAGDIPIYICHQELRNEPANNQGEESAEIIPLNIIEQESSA

in vivo = experiment: in vivo; design: species or system Macaca fascicularis; details: cynomolgus monkey, sc, 0.1 mg/kg
Protocol: Macaca fascicularis were used as experimental animals. A subcutaneous administration was performed at a dose of 0.1 mg/kg. Venous blood samples were collected before administration (0 h) and at 1 h, 2 h, 3 h, 4 h, 8 h, 12 h, 18 h, 24 h, 48 h, 96 h, 144 h, and 168 h post-administration. Plasma samples were separated by centrifugation. The plasma concentration of the compound in the plasma samples was determined using liquid chromatography-mass spectrometry.

Row | EC50 ([1]; HEK293 cell line stably expressing CT-R, intracellular cAMP, HTRF) | Relative Activity% [1] | half-life (in vivo) | SMILES
1 | 3.9 pM | – | – | CC(C)C[C@H](NC(=O)[C@H](CCCCN)NC(=O)CNC(=O)[C@H](CC(C)C)NC(=O)[C@@H](NC(=O)[C@@H]1CSSC[C@H](N)C(=O)N[C@@H](CO)C(=O)N[C@@H](CC(N)=O)C(=O)N[C@@H](CC(C)C)C(=O)N[C@@H](CO)C(=O)N[C@@H]([C@@H](C)O)C(=O)N1)C(C)C)C(=O)N[C@@H](CO)C(=O)N[C@@H](CCC(N)=O)C(=O)N[C@@H](CCC(=O)O)C(=O)N[C@@H](CC(C)C)C(=O)N[C@@H](Cc1c[nH]cn1)C(=O)N[C@@H](CCCCNC(=O)CNC(=O)CNC(=O)CNC(=O)CC[C@H](NC(=O)CCCCCCCCCCCCCCCCCCC(=O)O)C(=O)O)C(=O)N[C@@H](CC(C)C)C(=O)N[C@@H](CCC(N)=O)C(=O)N[C@H](C(=O)N[C@@H](Cc1ccc(O)cc1)C(=O)N1CCC[C@H]1C(=O)N[C@@H](CCCNC(=N)N)C(=O)N[C@H](C(=O)N[C@@H](CC(N)=O)C(=O)N[C@H](C(=O)NCC(=O)N[C@@H](CO)C(=O)NCC(=O)N[C@H](C(=O)N1CCC[C@H]1C(N)=O)[C@@H](C)O)[C@@H](C)O)[C@@H](C)O)[C@@H](C)O [Compound 12]
2 | – | 339.3% | 2.23 days | CC(C)C[C@H](NC(=O)[C@H](CCCCN)NC(=O)CNC(=O)[C@H](CC(C)C)NC(=O)[C@@H](NC(=O)[C@@H]1CSSC[C@H](N)C(=O)N[C@@H](CO)C(=O)N[C@@H](CC(N)=O)C(=O)N[C@@H](CC(C)C)C(=O)N[C@@H](CO)C(=O)N[C@@H]([C@@H](C)O)C(=O)N1)C(C)C)C(=O)N[C@@H](CO)C(=O)N[C@@H](CCC(N)=O)C(=O)N[C@@H](CCC(=O)O)C(=O)N[C@@H](CC(C)C)C(=O)N[C@@H](Cc1c[nH]cn1)C(=O)N[C@@H](CCCCNC(=O)COCCOCCOCCOCCOCCNC(=O)CC[C@H](NC(=O)CCCCCCCCCCCCCCCCCCC(=O)O)C(=O)O)C(=O)N[C@@H](CC(C)C)C(=O)N[C@@H](CCC(N)=O)C(=O)N[C@H](C(=O)N[C@@H](Cc1ccc(O)cc1)C(=O)N1CCC[C@H]1C(=O)N[C@@H](CCCNC(=N)N)C(=O)N[C@H](C(=O)N[C@@H](CC(N)=O)C(=O)N[C@H](C(=O)NCC(=O)N[C@@H](CO)C(=O)NCC(=O)N[C@H](C(=O)N1CCC[C@H]1C(N)=O)[C@@H](C)O)[C@@H](C)O)[C@@H](C)O)[C@@H](C)O [Compound 5, Cys-Ser-Asn-Leu-Ser-Thr-Cys-Val-Leu-Gly-Lys-Leu-Ser-Gln-Glu-Leu-His-Lys(PEG5CH2CO-γGlu-eicosanedioic acid)-Leu-Gln-Thr-Tyr-Pro-Arg-Thr-Asn-Thr-Gly-Ser-Gly-Thr-Pro-NH2]
3 | – | 296.9% | – | CC(C)C[C@H](NC(=O)[C@H](CCCCN)NC(=O)CNC(=O)[C@H](CC(C)C)NC(=O)[C@@H](NC(=O)[C@@H]1CSSC[C@H](N)C(=O)N[C@@H](CO)C(=O)N[C@@H](CC(N)=O)C(=O)N[C@@H](CC(C)C)C(=O)N[C@@H](CO)C(=O)N[C@@H]([C@@H](C)O)C(=O)N1)C(C)C)C(=O)N[C@@H](CO)C(=O)N[C@@H](CCC(N)=O)C(=O)N[C@@H](CCC(=O)O)C(=O)N[C@@H](CC(C)C)C(=O)N[C@@H](Cc1c[nH]cn1)C(=O)N[C@@H](CCCCNC(=O)COCCOCCOCCNC(=O)CC[C@H](NC(=O)CCCCCCCCCCCCCCCCCCCCC(=O)O)C(=O)O)C(=O)N[C@@H](CC(C)C)C(=O)N[C@@H](CCC(N)=O)C(=O)N[C@H](C(=O)N[C@@H](Cc1ccc(O)cc1)C(=O)N1CCC[C@H]1C(=O)N[C@@H](CCCNC(=N)N)C(=O)N[C@H](C(=O)N[C@@H](CC(N)=O)C(=O)N[C@H](C(=O)NCC(=O)N[C@@H](CO)C(=O)NCC(=O)N[C@H](C(=O)N1CCC[C@H]1C(N)=O)[C@@H](C)O)[C@@H](C)O)[C@@H](C)O)[C@@H](C)O [Compound 20, Cys-Ser-Asn-Leu-Ser-Thr-Cys-Val-Leu-Gly-Lys-Leu-Ser-Gln-Glu-Leu-His-Lys(PEG3CH2CO-γGlu-docosanedioic acid)-Leu-Gln-Thr-Tyr-Pro-Arg-Thr-Asn-Thr-Gly-Ser-Gly-Thr-Pro-NH2]
4 | – | 271.4% | – | CC(C)C[C@H](NC(=O)[C@H](CCCCN)NC(=O)CNC(=O)[C@H](CC(C)C)NC(=O)[C@@H](NC(=O)[C@@H]1CSSC[C@H](N)C(=O)N[C@@H](CO)C(=O)N[C@@H](CC(N)=O)C(=O)N[C@@H](CC(C)C)C(=O)N[C@@H](CO)C(=O)N[C@@H]([C@@H](C)O)C(=O)N1)C(C)C)C(=O)N[C@@H](CO)C(=O)N[C@@H](CCC(N)=O)C(=O)N[C@@H](CCC(=O)O)C(=O)N[C@@H](CC(C)C)C(=O)N[C@@H](Cc1c[nH]cn1)C(=O)N[C@@H](CCCCNC(=O)COCCOCCOCCNC(=O)CC[C@H](NC(=O)CCCCCCCCCCCCCCCCC(=O)O)C(=O)O)C(=O)N[C@@H](CC(C)C)C(=O)N[C@@H](CCC(N)=O)C(=O)N[C@H](C(=O)N[C@@H](Cc1ccc(O)cc1)C(=O)N1CCC[C@H]1C(=O)N[C@@H](CCCNC(=N)N)C(=O)N[C@H](C(=O)N[C@@H](CC(N)=O)C(=O)N[C@H](C(=O)NCC(=O)N[C@@H](CO)C(=O)NCC(=O)N[C@H](C(=O)N1CCC[C@H]1C(N)=O)[C@@H](C)O)[C@@H](C)O)[C@@H](C)O)[C@@H](C)O [Compound 18, Cys-Ser-Asn-Leu-Ser-Thr-Cys-Val-Leu-Gly-Lys-Leu-Ser-Gln-Glu-Leu-His-Lys(PEG3CH2CO-γGlu-octadecanedioic acid)-Leu-Gln-Thr-Tyr-Pr o-Arg-Thr-Asn-Thr-Gly-Ser-Gly-Thr-Pro-NH2]
